How the values were obtained:
[1] = target: T1, human Nav 1.7 (Homo sapiens, UniProt Q15858); test: Nav 1.7 sodium channel inhibition, automated patch clamp (QPATCH II), two pulse voltage protocol; assay type: cell-based; details: for Mean % inhibition-closed state: closed state (P1) of Nav 1.7; for Mean % inhibition-closed state / Mean % inhibition-inactivated state: CHO cells, compound at/around Cmax concentration as in Table 4; for Mean % inhibition-inactivated state: inactivated state (P2) of Nav 1.7; for ranking of the compounds in terms of efficacy: Nav 1.7 inhibition at Cmax
T1 construct: expressed in transfected cells
Protocol: Chinese Hamster Ovary (CHO) cells stably expressing human Nav 1.7 were cultured according to the manufacturer's standard operating procedure (SOP) and enzymatically lifted into solution following Sophion's standard SOP.
Voltage protocol 1 (VP1): A voltage protocol designed to generate a current voltage relationship and to estimate the half inactivation potential (V1/2) was used. The first voltage protocol was used as quality control and the latter was used later in the experiment (see below).
Voltage protocol 2 (VP2): Two pulse voltage protocol. FIG. 2 depicts a two pulse voltage protocol. The line marked with an asterisk indicates the voltage that was applied to the cell. In the beginning, all channels were in the closed state (V=−120 mV). A depolarization step to V=10 mV (P1) activated all channels and produced the largest possible current. Next, cells were kept at the V1/2 value for 1 s. […] A second stimulation to V=−10 mV activated all channels that were in the closed state (50%). Compound effects were assessed at both P1 and P2. State dependent compounds will show a different degree of inhibition at the two different pulses. This protocol was repeated every 10 s to monitor compound effects on the channel.

[2] = oral dose 10 mg; reference value; cited from earlier work

T1 sequence (Q15858 whole entry): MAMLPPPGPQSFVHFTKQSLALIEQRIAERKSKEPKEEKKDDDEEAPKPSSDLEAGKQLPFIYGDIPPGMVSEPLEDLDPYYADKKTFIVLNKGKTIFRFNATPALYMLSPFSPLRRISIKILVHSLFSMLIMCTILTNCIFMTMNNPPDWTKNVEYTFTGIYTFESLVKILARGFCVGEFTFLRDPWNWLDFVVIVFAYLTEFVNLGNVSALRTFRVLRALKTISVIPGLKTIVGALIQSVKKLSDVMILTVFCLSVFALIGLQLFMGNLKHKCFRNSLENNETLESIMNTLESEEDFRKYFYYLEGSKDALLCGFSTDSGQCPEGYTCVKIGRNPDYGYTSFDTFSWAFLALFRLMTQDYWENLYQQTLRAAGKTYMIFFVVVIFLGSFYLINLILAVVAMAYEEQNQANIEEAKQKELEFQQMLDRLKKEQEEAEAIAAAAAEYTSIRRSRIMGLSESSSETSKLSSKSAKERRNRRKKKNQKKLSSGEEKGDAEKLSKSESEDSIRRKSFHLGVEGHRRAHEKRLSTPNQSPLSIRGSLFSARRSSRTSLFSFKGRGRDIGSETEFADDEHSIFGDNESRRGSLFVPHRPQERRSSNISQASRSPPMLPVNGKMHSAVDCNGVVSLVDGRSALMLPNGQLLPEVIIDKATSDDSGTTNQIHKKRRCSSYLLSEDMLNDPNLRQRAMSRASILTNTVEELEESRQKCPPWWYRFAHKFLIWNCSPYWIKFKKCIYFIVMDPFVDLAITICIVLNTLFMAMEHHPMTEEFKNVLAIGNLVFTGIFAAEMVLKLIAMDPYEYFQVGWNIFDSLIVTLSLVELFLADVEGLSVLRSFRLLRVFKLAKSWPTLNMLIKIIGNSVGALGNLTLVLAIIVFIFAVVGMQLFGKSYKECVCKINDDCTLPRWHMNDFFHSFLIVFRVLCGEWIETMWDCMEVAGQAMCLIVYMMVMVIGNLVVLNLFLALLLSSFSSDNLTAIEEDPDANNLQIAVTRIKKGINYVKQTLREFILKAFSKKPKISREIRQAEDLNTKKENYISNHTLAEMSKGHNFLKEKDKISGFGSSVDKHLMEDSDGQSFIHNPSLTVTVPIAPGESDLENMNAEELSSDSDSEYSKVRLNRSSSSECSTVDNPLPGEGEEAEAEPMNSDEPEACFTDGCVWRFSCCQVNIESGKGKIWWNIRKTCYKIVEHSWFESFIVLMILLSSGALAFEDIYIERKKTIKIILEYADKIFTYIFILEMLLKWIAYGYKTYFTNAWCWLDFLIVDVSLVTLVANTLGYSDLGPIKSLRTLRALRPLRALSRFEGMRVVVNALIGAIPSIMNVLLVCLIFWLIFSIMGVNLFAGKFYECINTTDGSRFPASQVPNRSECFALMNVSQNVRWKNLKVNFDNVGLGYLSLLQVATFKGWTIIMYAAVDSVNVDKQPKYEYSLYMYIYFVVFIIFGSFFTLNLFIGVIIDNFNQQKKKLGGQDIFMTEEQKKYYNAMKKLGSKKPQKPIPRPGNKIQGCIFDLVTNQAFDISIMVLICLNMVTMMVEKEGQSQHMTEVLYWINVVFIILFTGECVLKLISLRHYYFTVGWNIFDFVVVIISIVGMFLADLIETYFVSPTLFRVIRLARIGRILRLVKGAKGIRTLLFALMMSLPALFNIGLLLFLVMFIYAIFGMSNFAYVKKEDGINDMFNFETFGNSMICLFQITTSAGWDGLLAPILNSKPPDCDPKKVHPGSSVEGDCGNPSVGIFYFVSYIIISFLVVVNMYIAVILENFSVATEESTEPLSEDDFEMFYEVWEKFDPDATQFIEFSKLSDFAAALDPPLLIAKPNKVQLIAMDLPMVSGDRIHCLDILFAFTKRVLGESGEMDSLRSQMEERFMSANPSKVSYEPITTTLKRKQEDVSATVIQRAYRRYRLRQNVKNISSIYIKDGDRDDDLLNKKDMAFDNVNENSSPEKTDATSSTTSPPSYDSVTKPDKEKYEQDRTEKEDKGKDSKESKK

SMILES	Mean % inhibition-closed state [1]	Mean % inhibition-inactivated state [1]	ranking of the compounds in terms of efficacy [1]	Cmax [2]	activity at the sodium channel subunit Nav 1.7 [1]	activity at Nav 1.7 compared with bupivacaine ([1]; cilnidipine at 20 mg dose)	activity at Nav 1.7 compared with gabapentin ([1]; cilnidipine at 20 mg dose)	activity at Nav 1.7 relative to amlodipine ([1]; comparable clinical doses (amlodipine 5 mg to cilnidipine 10 mg and amlodipine 10 mg to cilnidipine 20 mg))	higher relative inhibition of Nav 1.7 than amlodipine ([1]; plasma concentrations achieved with 10 mg cilnidipine versus clinically comparable 5 mg amlodipine)
CCCCN1CCCCC1C(=O)Nc1c(C)cccc1C (centres unmarked) [bupivacaine]	2.5%	20%							
CCOC(=O)C1=C(COCCN)NC(C)=C(C(=O)OC)C1c1ccccc1Cl (centres unmarked) [amlodipine]	−7.4%	7.8%							
C[S+](C)[O-] [DMSO]	−2.7%	38.7%							
NCC1(CC(=O)O)CCCCC1 [gabapentin]	−5.2%	6.3%	gabapentin<amlodipine<cilnidipine nifedipine						
CCN(CC)CC(=O)Nc1c(C)cccc1C [lidocaine]	40.9%	89.0%							
COCCOC(=O)C1=C(C)NC(C)=C(C(=O)OC/C=C/c2ccccc2)C1c1cccc([N+](=O)[O-])c1 (centres unmarked) [cilnidipine]	−6.7%	18.5%	gabapentin<amlodipine<cilnidipine nifedipine	5.9 ± 1.2 ng/mL	clinically meaningful activity	appears to be greater than a sodium channel blocker and local anesthetic, bupivacaine	greater than gabapentin	about 5 ×	9.5%
